Data set [1] concerns the target T1, P2X purinoceptor 7 (Homo sapiens, UniProt Q99572).
T1 sequence (Q99572 whole entry): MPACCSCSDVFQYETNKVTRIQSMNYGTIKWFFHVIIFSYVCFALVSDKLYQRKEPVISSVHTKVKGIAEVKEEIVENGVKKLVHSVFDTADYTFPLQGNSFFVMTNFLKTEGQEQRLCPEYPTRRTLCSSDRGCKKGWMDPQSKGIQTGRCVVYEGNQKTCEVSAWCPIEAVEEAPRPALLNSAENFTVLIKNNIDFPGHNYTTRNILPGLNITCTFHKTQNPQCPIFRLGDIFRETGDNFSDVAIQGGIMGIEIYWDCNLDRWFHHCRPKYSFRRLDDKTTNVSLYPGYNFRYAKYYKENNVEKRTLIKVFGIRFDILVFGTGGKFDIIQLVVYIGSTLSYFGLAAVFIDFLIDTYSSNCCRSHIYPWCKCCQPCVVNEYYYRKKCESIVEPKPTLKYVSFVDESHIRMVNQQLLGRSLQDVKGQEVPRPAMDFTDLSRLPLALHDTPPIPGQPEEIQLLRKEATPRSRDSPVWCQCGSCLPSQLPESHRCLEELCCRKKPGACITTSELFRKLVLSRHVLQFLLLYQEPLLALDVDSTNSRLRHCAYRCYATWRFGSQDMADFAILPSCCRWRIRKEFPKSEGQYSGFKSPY
Put plainly: Antagonist activity at human P2X7 receptor assessed as reduction in calcium flux by FLIPR assay. Background: Calcium flux is commonly read through the fluorescence of an indicator in the cells.

Data set [2] concerns the target T2, P2X purinoceptor 7 (Mus musculus, UniProt Q9Z1M0).
T2 sequence (Q9Z1M0 whole entry): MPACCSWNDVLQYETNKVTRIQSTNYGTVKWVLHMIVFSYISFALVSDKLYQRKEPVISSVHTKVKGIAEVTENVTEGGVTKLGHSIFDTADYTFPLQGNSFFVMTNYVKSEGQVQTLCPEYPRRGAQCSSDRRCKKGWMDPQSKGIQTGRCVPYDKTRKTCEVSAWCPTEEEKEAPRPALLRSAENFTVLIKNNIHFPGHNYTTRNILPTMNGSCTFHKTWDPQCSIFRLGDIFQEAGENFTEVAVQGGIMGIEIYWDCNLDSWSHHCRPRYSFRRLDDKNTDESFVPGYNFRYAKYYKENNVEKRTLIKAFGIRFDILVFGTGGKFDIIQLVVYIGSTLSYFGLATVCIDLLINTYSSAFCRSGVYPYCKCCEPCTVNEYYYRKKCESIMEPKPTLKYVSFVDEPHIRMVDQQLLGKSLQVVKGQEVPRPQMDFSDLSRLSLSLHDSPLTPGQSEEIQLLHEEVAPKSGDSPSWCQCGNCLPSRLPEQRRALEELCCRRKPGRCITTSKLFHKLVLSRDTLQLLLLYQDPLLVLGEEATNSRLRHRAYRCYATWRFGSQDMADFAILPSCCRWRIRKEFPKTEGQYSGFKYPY
The data set can be described thus: Antagonist activity at mouse P2X7 receptor assessed as reduction in calcium flux by FLIPR calcium flux assay.

Data set [3] in a line: Drug uptake in mouse brain at 50 mg/kg, po measured at 4 hrs. The class given is ADME, organism-based. Particulars: read-out: Drug uptake.
For data set [4], the system named is Mus musculus. The data set can be described thus: Ex vivo inhibition of P2X7 receptor in C57/bl6 mouse assessed as plasma concentration required to reduce LPS/BzATP-induced IL-1beta release at 15 mg/kg, po measured 2 hrs post dose. In kind it is functional, organism-based.
The target of data set [5] is T2, P2X purinoceptor 7. The data set can be described thus: Antagonist activity at P2X7 receptor in C57/bl6 mouse whole blood assessed as reduction in LPS/BzATP-induced IL-1beta release preincubated with LPS-stimulated cells for 30 mins followed by BzATP addition measured after 1.5 hrs by ELISA. In kind it is tissue-based. A general note: An ELISA detects its analyte on a solid surface through an enzyme-linked reagent.

In data set [6] the test system is Mus musculus. Put plainly: Ex vivo inhibition of P2X7 receptor in C57/bl6 mouse assessed as plasma concentration required to reduce LPS/BzATP-induced IL-1beta release at 50 mg/kg, po measured 8 hrs post dose. The class given is functional, organism-based.
Data set [7] deals with Mus musculus. Put plainly: Ex vivo inhibition of P2X7 receptor in po dosed C57/bl6 mouse assessed as reduction in LPS/BzATP-induced IL-1beta release in blood measured 2 hrs post dose. The class given is functional, organism-based.
Data set [8] can be described thus: Plasma concentration in mouse at 50 mg/kg, po measured at 4 hrs. In kind it is ADME, organism-based.
Data set [9] has as its system Mus musculus. The data set can be described thus: Ex vivo inhibition of P2X7 receptor in C57/bl6 mouse assessed as plasma concentration required to reduce LPS/BzATP-induced IL-1beta release at 5 mg/kg, po measured 2 hrs post dose. In kind it is functional, organism-based.
The target of data set [10] is T1, P2X purinoceptor 7. Put plainly: Antagonist activity at P2X7 receptor in human whole blood assessed as reduction in LPS/BzATP-induced IL-1beta release preincubated with LPS-stimulated cells for 30 mins followed by BzATP addition measured after 1.5 hrs by ELISA. In kind it is tissue-based.
In data set [11] the test system is Mus musculus. Put plainly: Ex vivo inhibition of P2X7 receptor in C57/bl6 mouse assessed as plasma concentration required to reduce LPS/BzATP-induced IL-1beta release at 50 mg/kg, po measured 4 hrs post dose. In kind it is functional, organism-based.
Data set [12] is described as follows: Drug uptake in C57/bl6 mouse plasma at 50 mg/kg, po after 24 hrs. The class given is ADME, organism-based. Particulars: in vivo, BLD = below limit of detection.
Data set [13] deals with Mus musculus. The data set can be described thus: Ex vivo inhibition of P2X7 receptor in C57/bl6 mouse assessed as plasma concentration required to reduce LPS/BzATP-induced IL-1beta release at 50 mg/kg, po measured 2 hrs post dose. The class given is functional, organism-based.
Data set [14] has as its system Mus musculus. The data set can be described thus: Antiarthritic activity in DBA mouse assessed as decrease in collagen/CFA-induced arthritic score at 30 mg/kg, ip twice per week administered on day 21 post collagen/CFA challenge. The class given is functional, organism-based.
Data set [15] has as its system Mus musculus. The data set can be described thus: Antiarthritic activity in DBA mouse assessed as decrease in collagen/CFA-induced arthritic score at 0.3 mg/kg, po qd administered on day 21 to 34 post collagen/CFA challenge measured on day 35. The class given is functional, organism-based.

The source made the active and inactive calls. The calls are words filed in the database; no cut-off is given here.

As usually defined, the IC50 is the point on the concentration scale where inhibition reaches its midpoint. As for `O=C(NCC(c1cnc(C(F)(F)F)nc1)N1CCC(F)(F)CC1)c1c(Cl)ccc2nc(N3CC[C@H](O)C3)ccc12` (some centres not stated), the IC50 on P2X purinoceptor 7 [1] came to 151 nM.
Take `Nc1ccc2c(C(=O)NCC(c3cnc(C(F)(F)F)nc3)N3CCC(F)(F)CC3)c(Cl)ccc2n1` (configuration not stated): the values for the IC50 on P2X purinoceptor 7 [1] and on P2X purinoceptor 7 [2] were 9 nM and 1090 nM, respectively.
As for `O=C(NCC(c1cnc(C(F)(F)F)nc1)N1CCC(F)(F)CC1)c1c(Cl)ccc2nc(NCCO)ccc12` (configuration not stated), on P2X purinoceptor 7 [1], the concentration for half-maximal inhibition (IC50) amounted to 78 nM.
Turning to `O=C(NCC(c1cnc(C(F)(F)F)nc1)N1CCC(F)(F)CC1)c1c(Cl)ccc2nc(N3CC[C@@H](O)C3)ccc12` (some centres not stated), the concentration at 4 h was found to be 21 ng/mL in data set [3] and 6420 ng/mL in [8]. For the same compound, the Cp in the data set with Mus musculus [4] is 8.9 µM; with Mus musculus [6], 4 µM; in the data set with Mus musculus [9], 1.6 µM; in the data set on Mus musculus [11], 11.7 µM; in data set [12] it was “Bld”; in the data set with Mus musculus [13], 23.4 µM. For the same compound, the IC50 on P2X purinoceptor 7 [5] was 316 nM; on P2X purinoceptor 7 [10], 87 nM; on P2X purinoceptor 7 [1] it was 35 nM; at P2X purinoceptor 7 [2] it was 80 nM. Further, the inhibition result in the data set with Mus musculus [7] is “Dose-dependent effect”.
For the compound `CN(Cc1cnc2nc(N)nc(N)c2n1)c1ccc(C(=O)N[C@@H](CCC(=O)O)C(=O)O)cc1`, the result in the data set on Mus musculus [14] was Active.
For `C[C@@H]1C[C@H]2[C@@H]3CCC4=CC(=O)C=C[C@]4(C)[C@@]3(F)[C@@H](O)C[C@]2(C)[C@@]1(O)C(=O)CO`, the outcome with Mus musculus [15] was Active.
As for `O=C(NCC(c1cnc(C(F)(F)F)nc1)N1CCC(F)(F)CC1)c1c(Cl)ccc2nc(N3CCC(O)CC3)ccc12` (configuration not stated), the IC50 on P2X purinoceptor 7 [1] came to 120 nM.
In the case of `O=C(NCC(c1cnc(C(F)(F)F)nc1)N1CCC(F)(F)CC1)c1c(Cl)ccc2nc(NC3CC3)ccc12` (configuration not stated), the IC50 is 631 nM at P2X purinoceptor 7 [5], 141 nM at P2X purinoceptor 7 [10], 64 nM at P2X purinoceptor 7 [1] and 123 nM at P2X purinoceptor 7 [2].
The corresponding values for `O=C(NCC(c1cnc(C(F)(F)F)nc1)N1CCC(F)(F)CC1)c1c(Cl)ccc2nc(N3CCOCC3)ccc12` (configuration not stated) are 631 nM, 376 nM, 25 nM and 103 nM.
Turning to `CNc1ccc2c(C(=O)NCC(c3cnc(C(F)(F)F)nc3)N3CCC(F)(F)CC3)c(Cl)ccc2n1` (configuration not stated), the IC50 on P2X purinoceptor 7 [1] came to 82 nM; on P2X purinoceptor 7 [2], 305 nM.
Take `CN1CCN(c2ccc3c(C(=O)NCC(c4cnc(C(F)(F)F)nc4)N4CCC(F)(F)CC4)c(Cl)ccc3n2)CC1` (configuration not stated): the IC50 on P2X purinoceptor 7 [1] is 85 nM; on P2X purinoceptor 7 [2], 486 nM.
